# Measurements taken from PubChem BioAssay (NCI).
# Several values for one entry are separate records, joined by “and”; a condition that tells them apart may be missing. Equal values may be shown once.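 48-hour exposure; five concentrations; linearly interpolated endpoints. Here, GI50 denotes the concentration required for 50% inhibition of growth. TGI: concentration producing complete growth inhibition.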
# Columns and labels:
# Assay in all cases: NCI tumour cell line growth inhibition, 48 h
# [1] = tested on: M19-MEL melanoma
# [2] = tested on: RXF-631 renal
# [3] = tested on: DMS 273 small cell lung
# [4] = tested on: KM20L2 colon
# [5] = tested on: HOP-18 NSCLC
# [6] = tested on: MDA-MB-435
# [7] = tested on: MDA-N
# [8] = tested on: MDA-MB-231 breast
# [9] = tested on: MCF7 breast
compound,measurement,setting,value
CC(=O)Oc1ccccc1C(=O)C1c2cccc(O)c2C(=O)c2c(O)cccc21,TGI,[1],2.94 µM
same,TGI,[2],11.1 µM
same,TGI,[3],3.8 µM
same,TGI,[4],5.57 µM
same,TGI,[5],4.87 µM
COC(=O)C(Cc1nc2ccc(Cl)cc2[nH]c1=O)C(=O)C(=O)Nc1ccccc1[N+](=O)[O-] (centres undefined),TGI,[1],> 100 µM
same,TGI,[2],> 100 µM
same,TGI,[3],> 100 µM
same,TGI,[4],> 100 µM
same,TGI,[5],> 100 µM
N#Cc1ccccc1NC(=O)c1ccccc1,TGI,[1],> 100 µM
same,TGI,[3],> 100 µM
same,TGI,[4],> 100 µM
same,TGI,[5],> 100 µM
CN(C)c1ccc(C(N)=O)cn1,TGI,[6],> 100 µM
same,TGI,[7],> 100 µM
same,TGI,[8],> 100 µM
same,TGI,[9],> 100 µM
O=[N+]([O-])c1nccn1CC1OC(n2ccnc2[N+](=O)[O-])C(O)C(O)C1O (centres undefined),TGI,[7],> 100 µM
same,TGI,[9],> 100 µM
CC(C)(Br)C(=O)/C=C/c1ccccc1,TGI,[6],22.2 µM
same,TGI,[7],21.4 µM
same,TGI,[8],> 69.8 µM
same,TGI,[9],15.3 µM
CCc1c2c(nc3cccc(N)c13)-c1cc3c(c(=O)n1C2)COC(=O)[C@]3(O)CC,GI50,[6],0.0349 µM
same,TGI,[6],1.54 µM
same,GI50,[7],0.0915 µM and 0.704 µM
same,TGI,[7],> 100 µM
same,GI50,[8],0.053 µM
same,TGI,[8],> 100 µM
same,GI50,[9],< 0.001 µM
same,TGI,[9],0.0101 µM
O=C(Cc1ccccc1)N/N=C(\C1=Nc2ccc([N+](=O)[O-])cc2NC1O)C(O)c1ccc([N+](=O)[O-])cc1 (centres undefined),TGI,[1],> 100 µM
same,TGI,[2],> 100 µM
same,TGI,[4],> 100 µM
same,TGI,[5],> 100 µM
C[C@H](CSC(=O)c1ccccc1)C(=O)N1c2ccccc2C[C@H]1C(=O)O,TGI,[7],> 100 µM
same,TGI,[8],> 100 µM
same,TGI,[9],> 100 µM
CCOc1ccc(NC(=O)CC2SC(N)=NC2=O)cc1 (centres undefined),TGI,[1],> 100 µM
same,TGI,[4],> 100 µM
C/C=C(/CCCCNCCCC)[Si](C)(C)C,TGI,[1],33 µM
same,TGI,[2],31.3 µM
same,TGI,[3],38.2 µM
same,TGI,[4],21.7 µM
N/N=C(\Cc1ccccc1)NN=C(N)N,TGI,[1],> 100 µM
same,TGI,[2],> 100 µM
same,TGI,[5],> 100 µM
C/C(=N\NC(N)=O)C(CN(C)C)C(c1ccccc1)c1c(O)c2ccccc2oc1=O (centres undefined),TGI,[6],> 100 µM
same,TGI,[7],> 100 µM
same,TGI,[8],> 100 µM
same,TGI,[9],> 100 µM
CN(C)c1ccc(N=Nc2c([O-])ccc3ccccc23)cc1.[C-]#[O+].[C-]#[O+].[Ir],GI50,[1],20.3 µM
same,TGI,[1],50.2 µM
same,GI50,[4],26 µM
same,TGI,[4],59 µM
same,GI50,[6],18.8 µM
same,TGI,[6],46.1 µM
same,GI50,[8],18.8 µM
same,TGI,[8],36.2 µM
same,GI50,[5],17.2 µM
same,TGI,[5],37.2 µM
same,GI50,[9],15.8 µM
same,TGI,[9],31.8 µM
CN(C)C(=O)C1CCC(=C2C(=O)OC(C)(C)OC2=O)N1C (centres undefined),TGI,[1],> 100 µM
same,TGI,[3],> 100 µM
same,TGI,[4],> 100 µM
same,TGI,[5],> 100 µM
C=C(N=[N+]=[N-])c1cn(C2CC(O)C(CO)O2)c(=O)[nH]c1=O (centres undefined),TGI,[1],> 100 µM
same,TGI,[3],> 100 µM
same,TGI,[4],> 100 µM
same,TGI,[5],> 100 µM
O=c1cccccc1NCCCCCCCCCNc1cccccc1=O,TGI,[1],51 µM
same,TGI,[3],32.6 µM
same,TGI,[4],77.5 µM
O=C(Nc1cc(Cl)c(Cl)cc1Cl)C(=O)C(C(=O)c1ccc(Cl)c(Cl)c1)C1OC(=O)c2ccccc21 (centres undefined),TGI,[1],37.9 µM
same,TGI,[3],44.5 µM
same,TGI,[4],33 µM
CCCCCCCCCCCCC(=O)[O-].CCCCCCCCCCCCC(=O)[O-].CCCCCCCCCCCCC(=O)[O-].CCCCCCCCCCCCC(=O)[O-].[Mo+2].[Mo+2],GI50,[1],18.7 µM
same,TGI,[1],> 100 µM
same,GI50,[2],0.403 µM
same,TGI,[2],2.06 µM
same,GI50,[4],16.2 µM
same,TGI,[4],34.9 µM
same,GI50,[5],20.6 µM
same,TGI,[5],34.9 µM
CC(=O)NC(CCCN(Cc1ccccc1)C(=O)N(CCCl)N=O)C(=O)NCc1ccccc1 (centres undefined),TGI,[3],> 100 µM
same,TGI,[4],> 100 µM
same,TGI,[5],> 100 µM
O=C(O)c1c[nH]cc1C(=O)O,TGI,[1],> 100 µM
same,TGI,[3],> 100 µM
same,TGI,[4],> 100 µM
Cc1c2ccncc2c(C)c2c1[nH]c1ccc(OC(C)(C)C)cc12,TGI,[1],5.54 µM
same,TGI,[2],6.58 µM
same,TGI,[3],4.36 µM
same,TGI,[4],11.1 µM
COc1cc(Oc2c(O)c(C)c(OC)c(C(C)=O)c2O)c(C(C)=O)c(O)c1C,TGI,[1],> 100 µM
same,TGI,[2],> 100 µM
same,TGI,[3],> 100 µM
same,TGI,[4],> 100 µM
CC1=NN(C(=O)c2ccc(Cl)cc2)C(=O)/C1=C/c1cccc([N+](=O)[O-])c1,TGI,[1],> 100 µM
same,TGI,[4],> 100 µM
O=[N+]([O-])c1ccc(CS(=O)Cc2ccccc2)cc1 (centres undefined),TGI,[6],> 100 µM
same,TGI,[7],> 100 µM
same,TGI,[8],> 100 µM
same,TGI,[9],> 100 µM
CC(C)=CC(=O)CC(=O)C(=O)Nc1ccc(Cl)c(Cl)c1,TGI,[1],> 100 µM
same,TGI,[3],> 100 µM
same,TGI,[4],> 100 µM
O=C(Nc1ccc2c(c1)oc(=O)c1ccccc12)C(Cl)Cl,TGI,[6],> 100 µM
same,TGI,[7],> 100 µM
same,TGI,[8],> 100 µM
same,TGI,[9],> 100 µM
C=C(C)[C@@H]1CC[C@@]2(C)[C@H]1[C@H]1CCC3[C@@]4(C)CC[C@H](O)C(C)(C)[C@@H]4CC[C@@]3(C)[C@]1(C)C[C@@H]2O (some centres undefined),TGI,[6],84.9 µM
same,TGI,[7],> 100 µM
same,TGI,[8],> 100 µM
same,TGI,[9],> 100 µM
O=C1c2ccccc2C(=O)C1C(c1ccc([N+](=O)[O-])cc1)C1C(=O)c2ccccc2C1=O,TGI,[2],29.7 µM
same,TGI,[3],> 100 µM
same,TGI,[4],> 100 µM
same,TGI,[5],> 100 µM
FC(F)(F)c1ccc2nc(Nc3ccc(Cl)c(Cl)c3)c(-c3ccccc3)nc2c1,TGI,[1],> 100 µM
same,TGI,[3],> 100 µM
same,TGI,[4],> 100 µM
same,TGI,[5],> 100 µM
CCOC(=O)/C(C#N)=C1\N[C@H](C(=O)OCC)CO1,TGI,[1],> 100 µM
same,TGI,[2],> 100 µM
same,TGI,[4],> 100 µM
same,TGI,[5],> 100 µM
